Experimental data: US8802661B2, “C-28 amides of modified C-3 betulinic acid derivatives as HIV maturation inhibitors” (priority 2010, dated 2014)
Read-outs that look alike come from different tables or passages of the source.

Test system: recombinant NL4-3 virus (Renilla luciferase in nef, Gag P373S)
Experiment: HIV Cell Culture Assay (luciferase reporter virus in MT-2 cells)
Assay type: cell-based
Method in brief: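 Inhibitor potency against the reporter virus comes from reduced luciferase activity in infected MT-2 cells exposed to a dilution series of compound over 4-5 days.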

C=C(C)[C@@H]1CC[C@]2(C(=O)NCCNCCS(=O)(=O)O)CC[C@]3(C)[C@H](CC[C@@H]4[C@@]5(C)CC=C(c6ccc(C(=O)O)cc6)C(C)(C)[C@@H]5CC[C@]43C)[C@@H]12 [Example 92, 4-((1R,3aS,5aR,5bR,7aR,11aS,11bR,13aR,13bR)-5a,5b,8,8,11a-pentamethyl-1-(prop-1-en-2-yl)-3a-(2-(2-sulfoethylamino)ethylcarbamoyl)-2,3,3a,4,5,5a,5b,6,7,7a,8,11,11a,11b,12,13,13a,13b-octadecahydro-1H-cyclopenta[a]chrysen-9-yl)benzoic acid]
EC50 (NL43, read-out: EC50 Group): < 100 nM

C=C(C)[C@@H]1CC[C@]2(C(=O)NCCN(CCC)CCC(=O)O)CC[C@]3(C)[C@H](CC[C@@H]4[C@@]5(C)CC=C(c6ccc(C(=O)O)cc6)C(C)(C)[C@@H]5CC[C@]43C)[C@@H]12 [Example 93, 4-((1R,3aS,5aR,5bR,7aR,11aS,11bR,13aR,13bR)-3a-(2-((2-carboxyethyl)(propyl)amino)ethylcarbamoyl)-5a,5b,8,8,11a-pentamethyl-1-(prop-1-en-2-yl)-2,3,3a,4,5,5a,5b,6,7,7a,8,11,11a,11b,12,13,13a,13b-octadecahydro-1H-cyclopenta[a]chrysen-9-yl)benzoic acid]
EC50 (NL43, read-out: EC50 Group): < 100 nM

C=C(C)[C@@H]1CC[C@]2(C(=O)NCCN(CCC)CC(=O)O)CC[C@]3(C)[C@H](CC[C@@H]4[C@@]5(C)CC=C(c6ccc(C(=O)O)cc6)C(C)(C)[C@@H]5CC[C@]43C)[C@@H]12 [Example 94, 4-((1R,3aS,5aR,5bR,7aR,11aS,11bR,13aR,13bR)-3a-(2-((carboxymethyl)(propyl)amino)ethylcarbamoyl)-5a,5b,8,8,11a-pentamethyl-1-(prop-1-en-2-yl)-2,3,3a,4,5,5a,5b,6,7,7a,8,11,11a,11b,12,13,13a,13b-octadecahydro-1H-cyclopenta[a]chrysen-9-yl)benzoic acid]
EC50 (NL43, read-out: EC50 Group): < 100 nM

C=C(C)[C@@H]1CC[C@]2(C(=O)NCCN(CC(=O)O)C(C)C)CC[C@]3(C)[C@H](CC[C@@H]4[C@@]5(C)CC=C(c6ccc(C(=O)O)cc6)C(C)(C)[C@@H]5CC[C@]43C)[C@@H]12 [Example 95, 4-((1R,3aS,5aR,5bR,7aR,11aS,11bR,13aR,13bR)-3a-(2-((carboxymethyl)(isopropyl)amino)ethylcarbamoyl)-5a,5b,8,8,11a-pentamethyl-1-(prop-1-en-2-yl)-2,3,3a,4,5,5a,5b,6,7,7a,8,11,11a,11b,12,13,13a,13b-octadecahydro-1H-cyclopenta[a]chrysen-9-yl)benzoic acid]
EC50 (NL43, read-out: EC50 Group): < 100 nM

C=C(C)[C@@H]1CC[C@]2(C(=O)NCCN(CCC(=O)O)C(C)C)CC[C@]3(C)[C@H](CC[C@@H]4[C@@]5(C)CC=C(c6ccc(C(=O)O)cc6)C(C)(C)[C@@H]5CC[C@]43C)[C@@H]12 [Example 96, 4-((1R,3aS,5aR,5bR,7aR,11aS,11bR,13aR,13bR)-3a-(2-((2-carboxyethyl)(isopropyl)amino)ethylcarbamoyl)-5a,5b,8,8,11a-pentamethyl-1-(prop-1-en-2-yl)-2,3,3a,4,5,5a,5b,6,7,7a,8,11,11a,11b,12,13,13a,13b-octadecahydro-1H-cyclopenta[a]chrysen-9-yl)benzoic acid]
EC50 (NL43, read-out: EC50 Group): < 100 nM

CC(C)[C@@H]1CC[C@]2(C(=O)NCC[N+](C)(C)[O-])CC[C@]3(C)[C@H](CC[C@@H]4[C@@]5(C)CC=C(c6ccc(C(=O)O)cc6)C(C)(C)[C@@H]5CC[C@]43C)[C@@H]12 [Example 97, 2-((1S,3aS,5aR,5bR,7aR,11aS,11bR,13aR,13bR)-9-(4-carboxyphenyl)-1-isopropyl-5a,5b,8,8,11a-pentamethyl-2,3,3a,4,5,5a,5b,6,7,7a,8,11,11a,11b,12,13,13a,13b-octadecahydro-1H-cyclopenta[a]chrysene-3a-carboxamido)-N,N-dimethylethanamine oxide]
EC50 (NL43): 2.6 nM

C=C(C)[C@@H]1CC[C@]2(C(=O)NCCCN)CC[C@]3(C)[C@H](CC[C@@H]4[C@@]5(C)CC=C(c6ccc(C(=O)O)cc6)C(C)(C)[C@@H]5CC[C@]43C)[C@@H]12 [Example 98, 4-((1R,3aS,5aR,5bR,7aR,11aS,11bR,13aR,13bR)-3a-(3-aminopropylcarbamoyl)-5a,5b,8,8,11a-pentamethyl-1-(prop-1-en-2-yl)-2,3,3a,4,5,5a,5b,6,7,7a,8,11,11a,11b,12,13,13a,13b-octadecahydro-1H-cyclopenta[a]chrysen-9-yl)benzoic acid]
EC50 (NL43, read-out: EC50 Group): < 100 nM

C=C(C)[C@@H]1CC[C@]2(C(=O)NCCCN(CC)CCC(=O)O)CC[C@]3(C)[C@H](CC[C@@H]4[C@@]5(C)CC=C(c6ccc(C(=O)O)cc6)C(C)(C)[C@@H]5CC[C@]43C)[C@@H]12 [Example 99, 4-((1R,3aS,5aR,5bR,7aR,11aS,11bR,13aR,13bR)-3a-(3-((2-carboxyethyl)(ethyl)amino)propylcarbamoyl)-5a,5b,8,8,11a-pentamethyl-1-(prop-1-en-2-yl)-2,3,3a,4,5,5a,5b,6,7,7a,8,11,11a,11b,12,13,13a,13b-octadecahydro-1H-cyclopenta[a]chrysen-9-yl)benzoic acid]
EC50 (NL43, read-out: EC50 Group): < 100 nM

C=C(C)[C@@H]1CC[C@]2(C(=O)NCCCN(CCC(=O)O)CCC(=O)O)CC[C@]3(C)[C@H](CC[C@@H]4[C@@]5(C)CC=C(c6ccc(C(=O)O)cc6)C(C)(C)[C@@H]5CC[C@]43C)[C@@H]12 [Example 100, 3,3′-(3-((1R,3aS,5aR,5bR,7aR,11aS,11bR,13aR,13bR)-9-(4-carboxyphenyl)-5a,5b,8,8,11a-pentamethyl-1-(prop-1-en-2-yl)-2,3,3a,4,5,5a,5b,6,7,7a,8,11,11a,11b,12,13,13a,13b-octadecahydro-1H-cyclopenta[a]chrysene-3a-carboxamido)propylazanediyl)dipropanoic acid]
EC50 (NL43, read-out: EC50 Group): > 100 nM

C=C(C)[C@@H]1CC[C@]2(C(=O)NCCCN(CC)CCCC(=O)O)CC[C@]3(C)[C@H](CC[C@@H]4[C@@]5(C)CC=C(c6ccc(C(=O)O)cc6)C(C)(C)[C@@H]5CC[C@]43C)[C@@H]12 [Example 101, 4-((1R,3aS,5aR,5bR,7aR,11aS,11bR,13aR,13bR)-3a-(3-((3-carboxypropyl)(ethyl)amino)propylcarbamoyl)-5a,5b,8,8,11a-pentamethyl-1-(prop-1-en-2-yl)-2,3,3a,4,5,5a,5b,6,7,7a,8,11,11a,11b,12,13,13a,13b-octadecahydro-1H-cyclopenta[a]chrysen-9-yl)benzoic acid]
EC50 (NL43, read-out: EC50 Group): < 100 nM

C=C(C)[C@@H]1CC[C@]2(C(=O)NCCCN(CC)CC(=O)O)CC[C@]3(C)[C@H](CC[C@@H]4[C@@]5(C)CC=C(c6ccc(C(=O)O)cc6)C(C)(C)[C@@H]5CC[C@]43C)[C@@H]12 [Example 102, 4-((1R,3aS,5aR,5bR,7aR,11aS,11bR,13aR,13bR)-3a-(3-((carboxymethyl)(ethyl)amino)propylcarbamoyl)-5a,5b,8,8,11a-pentamethyl-1-(prop-1-en-2-yl)-2,3,3a,4,5,5a,5b,6,7,7a,8,11,11a,11b,12,13,13a,13b-octadecahydro-1H-cyclopenta[a]chrysen-9-yl)benzoic acid]
EC50 (NL43): 10.5 nM

C=C(C)[C@@H]1CC[C@]2(C(=O)NCCN(CC)CCCC(=O)O)CC[C@]3(C)[C@H](CC[C@@H]4[C@@]5(C)CC=C(c6ccc(C(=O)O)cc6)C(C)(C)[C@@H]5CC[C@]43C)[C@@H]12 [Example 103, 4-((1R,3aS,5aR,5bR,7aR,11aS,11bR,13aR,13bR)-3a-(2-((3-carboxypropyl)(ethyl)amino)ethylcarbamoyl)-5a,5b,8,8,11a-pentamethyl-1-(prop-1-en-2-yl)-2,3,3a,4,5,5a,5b,6,7,7a,8,11,11a,11b,12,13,13a,13b-octadecahydro-1H-cyclopenta[a]chrysen-9-yl)benzoic acid]
EC50 (NL43, read-out: EC50 Group): < 100 nM

C=C(C)[C@@H]1CC[C@]2(C(=O)NCCN(C)C)CC[C@]3(C)[C@H](CC[C@@H]4[C@@]5(C)CC=C(c6ccc(C(=O)O)c(F)c6)C(C)(C)[C@@H]5CC[C@]43C)[C@@H]12 [Example 104, 4-((1R,3aS,5aR,5bR,7aR,11aS,11bR,13aR,13bR)-3a-(2-(dimethylamino)ethylcarbamoyl)-5a,5b,8,8,11a-pentamethyl-1-(prop-1-en-2-yl)-2,3,3a,4,5,5a,5b,6,7,7a,8,11,11a,11b,12,13,13a,13b-octadecahydro-1H-cyclopenta[a]chrysen-9-yl)-2-fluorobenzoic acid]
EC50 (NL43, read-out: EC50 Group): < 100 nM

C=C(C)[C@@H]1CC[C@]2(C(=O)NCCCN3CCS(=O)(=O)CC3)CC[C@]3(C)[C@H](CC[C@@H]4[C@@]5(C)CC=C(c6ccc(C(=O)O)c(F)c6)C(C)(C)[C@@H]5CC[C@]43C)[C@@H]12 [Example 105, 4-((1R,3aS,5aR,5bR,7aR,11aS,11bR,13aR,13bR)-3a-((3-(1,1-dioxido-4-thiomorpholinyl)propyl)carbamoyl)-1-isopropenyl-5a,5b,8,8,11a-pentamethyl-2,3,3a,4,5,5a,5b,6,7,7a,8,11,11a,11b,12,13,13a,13b-octadecahydro-1H-cyclopenta[a]chrysen-9-yl)-2-fluorobenzoic acid]
EC50 (NL43, read-out: EC50 Group): < 100 nM

C=C(C)[C@@H]1CC[C@]2(C(=O)NCCN3CCS(=O)(=O)CC3)CC[C@]3(C)[C@H](CC[C@@H]4[C@@]5(C)CC=C(c6ccc(C(=O)O)cc6)C(C)(C)[C@@H]5CC[C@]43C)[C@@H]12 [Example 106, 4-((1R,3aS,5aR,5bR,7aR,11aS,11bR,13aR,13bR)-3a-((2-(1,1-dioxido-4-thiomorpholinyl)ethyl)carbamoyl)-1-isopropenyl-5a,5b,8,8,11a-pentamethyl-2,3,3a,4,5,5a,5b,6,7,7a,8,11,11a,11b,12,13,13a,13b-octadecahydro-1H-cyclopenta[a]chrysen-9-yl)benzoic acid]
EC50 (NL43, read-out: EC50 Group): < 100 nM
